Tests used:
[1] = system: HCV replicon cells; assay: Cell-based HCV Replicon Assay; settings: Hepatitis C virus, 72 h; replicon RNA level by real time PCR (Taqman), day 3; EC90 = concentration to achieve ΔCT=3.2 over baseline
Method: Assays Cell-based HCV Replicon Assay
To measure cell-based anti-HCV activity of the compounds of the present invention, replicon cells were seeded at 5000 cells/well in 96-well collagen I-coated Nunc plates in the presence of the compound of the invention. […] The final concentration of DMSO was 0.5%, fetal bovine serum was 10%, in the assay media. […] The replicon RNA level was measured using real time PCR (Taqman assay). The amplicon was located in 5B. The
GAPDH RNA was used as endogenous control and was amplified in the same reaction as NS5B (multiplex PCR) using primers and VIC-labeled probe recommended by the manufacturer (PE Applied Biosystem). The real-time RT-PCR reactions were run on ABI PRISM 7900HT Sequence Detection System using the following program: 48° C. for 30 min, 95° C. for 10 min, 40 cycles of 95° C. for 15 sec, 60° C. for 1 min. The ΔCT values (CT5B-CTGAPDH) were plotted against the concentration of test compound and fitted to the sigmoid dose-response model using GraphPad PRISM software. EC50 was defined as the concentration of inhibitor necessary to achieve ΔCT=1 over the projected baseline; EC90 the concentration necessary to achieve ΔCT=3.2 over the baseline. Alternatively, to quantitate the absolute amount of replicon RNA, a standard curve was established by including serially diluted T7 transcripts of replicon RNA in the Taqman assay. […]

SMILES	EC90 [1] [µM]	melting point
Nc1nc(Cl)c(/N=N/c2ccc(Cl)cc2)c(N[C@@H]2C[C@H](CO)[C@@H](O)C2)n1 (racemic) [Compound 8, Cyclopentanemethanol, 4-[[2-amino-6-chloro-5-[(4-chlorophenyl)azo]-4-pyrimidinyl]amino]-2-hydroxy-, cis, trans—(+−)—]	> 5	–
Nc1nc(Cl)c(/N=N/c2ccc(Cl)cc2)c(N[C@H]2C[C@@H](CO)[C@H](O)[C@@H]2O)n1 [Compound 11, (1S,2R,3S,5S)-3-[[2-amino-6-chloro-5-[(4-chlorophenyl)azo]-4-pyrimidinyl]amino]-5-(hydroxymethyl)-1,2-cyclopentanediol]	–	238 to 241 °C (dec.)
